Data taken from ChEMBL document CHEMBL1201862, “PubChem BioAssay data set” (2004).
Active and inactive are the calls of the source.

Legend:
[1] = molecular target: Metabotropic glutamate receptor 4 (Rattus norvegicus, UniProt P31423); assay: Modulation of the Metabotropic Glutamate Receptor mGluR4: Rat PAM Potency. [Related pubchem assays (depositor defined):AID2437, AID2807]; format: functional
[2] = molecular target: Serine/threonine-protein phosphatase PP1-alpha catalytic subunit (Homo sapiens, UniProt P62136); assay: PP1 phosphatase inhibitors, dose response, biochemical, fluorescence (AID 2394)
[3] = molecular target: T1, SUMO-activating enzyme (Homo sapiens, UniProt Q9UBT2); assay: SUMOylation inhibitor hit validation, confirmation, SUMOylation inhibitor project, biochemical, AlphaScreen (AID 2018); format: functional
[4] = molecular target: T1, SUMO-activating enzyme; assay: inhibitors of in vitro SUMOylation cascade, primary screen, biochemical, HTRF, uHTS (AID 2006); format: protein-complex assay
[5] = inhibitors of intracellular T. cruzi replication, confirmation, NIH3T3 host cells, beta-gal luminescence (AID 2044); format: functional, cell-based;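 further: intracellular parasites grown in NIH/3T3 mouse fibroblasts as host cells; luminescent beta-galactosidase reporter signal from transgenic T. cruzi replicating inside host cells; inhibitors lower the luminescence signal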
[6] = molecular target: Serine/threonine-protein phosphatase (Homo sapiens, UniProt Q9BPW0); assay: PP5 phosphatase inhibitors, dose response, biochemical, fluorescence (AID 2395)
[7] = cytotoxicity toward NIH3T3 fibroblasts, dose response, counter-screen, cell-based, ATP luminescence, mouse fibroblasts (AID 2010); format: functional;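 further: cells exposed to compound for about 90 hours before reading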
[8] = molecular target: Heat shock protein HSP 90-alpha (Homo sapiens, UniProt P07900); assay: Luminescence-based dose response biochemical high throughput screening assay for inhibitors of the Heat Shock Protein 90 (HSP90). [Related pubchem assays: 1831 (Summary AID.), 1846 (Confirmation screen.), 1789 (Primary screen.)]
[9] = molecular target: T2, Hexokinase HKDC1 (Homo sapiens, UniProt Q2TB90); assay: HKDC1 hexokinase inhibitors, dose response, biochemical, W721R variant (AID 504729); format: functional
T2 sequence (Q2TB90 whole entry): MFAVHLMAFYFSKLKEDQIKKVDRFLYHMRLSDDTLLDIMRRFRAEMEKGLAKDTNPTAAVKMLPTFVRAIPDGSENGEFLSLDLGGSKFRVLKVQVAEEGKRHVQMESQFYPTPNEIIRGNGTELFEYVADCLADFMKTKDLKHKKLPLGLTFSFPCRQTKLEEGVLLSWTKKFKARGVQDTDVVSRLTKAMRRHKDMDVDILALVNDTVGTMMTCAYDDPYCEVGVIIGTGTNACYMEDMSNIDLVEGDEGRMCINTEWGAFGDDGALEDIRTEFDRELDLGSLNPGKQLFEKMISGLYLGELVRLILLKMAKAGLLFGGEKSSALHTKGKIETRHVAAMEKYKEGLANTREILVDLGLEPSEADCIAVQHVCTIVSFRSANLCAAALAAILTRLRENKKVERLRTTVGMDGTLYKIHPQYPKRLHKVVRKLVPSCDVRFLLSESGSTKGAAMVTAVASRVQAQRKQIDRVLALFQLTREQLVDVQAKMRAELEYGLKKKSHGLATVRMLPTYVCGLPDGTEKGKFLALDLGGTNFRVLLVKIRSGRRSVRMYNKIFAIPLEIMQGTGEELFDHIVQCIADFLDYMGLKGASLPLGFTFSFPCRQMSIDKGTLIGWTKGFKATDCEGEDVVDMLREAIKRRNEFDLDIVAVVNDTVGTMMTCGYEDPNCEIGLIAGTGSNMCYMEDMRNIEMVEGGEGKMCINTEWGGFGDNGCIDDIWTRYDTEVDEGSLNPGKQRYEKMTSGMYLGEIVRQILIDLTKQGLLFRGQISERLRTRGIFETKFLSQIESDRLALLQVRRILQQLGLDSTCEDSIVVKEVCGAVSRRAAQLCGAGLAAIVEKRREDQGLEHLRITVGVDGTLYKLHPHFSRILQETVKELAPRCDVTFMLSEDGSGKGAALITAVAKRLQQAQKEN

[10] = molecular target: T3, Apoptotic protease-activating factor 1 (Homo sapiens, UniProt O14727); format: functional
T3 sequence (O14727 whole entry): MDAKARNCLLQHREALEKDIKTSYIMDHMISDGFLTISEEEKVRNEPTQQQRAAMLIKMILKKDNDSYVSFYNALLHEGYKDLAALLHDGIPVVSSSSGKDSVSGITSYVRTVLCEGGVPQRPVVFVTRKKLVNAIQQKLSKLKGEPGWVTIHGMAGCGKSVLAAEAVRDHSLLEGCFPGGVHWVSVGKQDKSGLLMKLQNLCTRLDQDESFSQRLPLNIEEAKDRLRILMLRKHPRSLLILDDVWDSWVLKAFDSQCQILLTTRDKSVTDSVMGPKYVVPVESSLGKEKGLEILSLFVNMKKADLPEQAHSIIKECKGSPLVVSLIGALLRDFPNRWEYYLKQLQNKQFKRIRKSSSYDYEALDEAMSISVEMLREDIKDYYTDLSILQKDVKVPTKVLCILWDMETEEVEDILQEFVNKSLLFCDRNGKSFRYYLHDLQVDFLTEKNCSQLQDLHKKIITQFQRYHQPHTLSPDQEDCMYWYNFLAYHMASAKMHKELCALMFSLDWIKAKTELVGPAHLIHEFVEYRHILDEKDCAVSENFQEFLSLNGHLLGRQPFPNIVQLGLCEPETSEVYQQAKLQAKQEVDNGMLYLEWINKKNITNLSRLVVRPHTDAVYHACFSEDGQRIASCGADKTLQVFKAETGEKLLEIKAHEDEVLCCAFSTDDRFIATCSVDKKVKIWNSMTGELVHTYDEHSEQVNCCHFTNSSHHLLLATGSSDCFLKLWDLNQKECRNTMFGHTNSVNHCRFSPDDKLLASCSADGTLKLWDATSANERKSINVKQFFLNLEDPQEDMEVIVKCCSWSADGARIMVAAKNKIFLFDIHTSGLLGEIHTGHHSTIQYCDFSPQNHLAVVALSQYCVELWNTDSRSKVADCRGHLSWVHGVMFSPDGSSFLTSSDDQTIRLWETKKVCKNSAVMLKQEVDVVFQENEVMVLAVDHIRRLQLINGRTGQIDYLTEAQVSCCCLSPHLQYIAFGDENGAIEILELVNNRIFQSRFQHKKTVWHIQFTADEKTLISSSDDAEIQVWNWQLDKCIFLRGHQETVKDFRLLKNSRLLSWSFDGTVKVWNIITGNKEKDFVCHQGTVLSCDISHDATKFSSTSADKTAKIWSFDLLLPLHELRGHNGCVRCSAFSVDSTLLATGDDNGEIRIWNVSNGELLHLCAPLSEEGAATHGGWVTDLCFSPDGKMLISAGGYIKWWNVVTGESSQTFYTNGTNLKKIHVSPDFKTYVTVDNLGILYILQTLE

[11] = tested on: INS1; assay: beta cell apoptosis inhibitors, cytokine rescue, dose response, luminescence, retest (AID 449756); format: functional, cell-based; conditions: Rattus norvegicus;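 further: cell death triggered by IL-1 beta plus TNF-alpha plus IFN-gamma mixture; protective hits raise ATP signal compared with cytokine alone wells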
[12] = molecular target: T4, Mitochondrial peptide methionine sulfoxide reductase (Bos taurus, UniProt P54149); format: functional;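 further: absorbance read-out, biochemical high-throughput dose-response screen for MsrA inhibitors, confirmatory; recombinant bovine MsrA coupled to E. coli TrxB with NADPH and selenocystamine; potency is for inhibitors of MsrA activity on DMSO substrate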
T4 sequence (P54149 whole entry): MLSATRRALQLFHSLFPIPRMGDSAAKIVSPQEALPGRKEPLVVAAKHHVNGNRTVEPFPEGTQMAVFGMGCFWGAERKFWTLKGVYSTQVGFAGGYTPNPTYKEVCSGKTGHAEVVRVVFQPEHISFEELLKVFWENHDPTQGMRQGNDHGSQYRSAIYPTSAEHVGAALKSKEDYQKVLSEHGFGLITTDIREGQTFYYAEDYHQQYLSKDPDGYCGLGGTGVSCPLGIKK

[13] = NIH-3T3 fibroblast cytotoxicity, dose response, cytotoxicity control, cell-based, fluorescence, Alamar Blue, secondary assay (AID 2327); format: functional;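 further: NIH-3T3 mouse fibroblasts cultured with fluconazole at 8 µg/mL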
[14] = insulin promoter down-regulators in MIN6 cells, imaging, high-content screening, mouse beta cells (AID 1628); format: functional
[15] = cytotoxicity in MIN6 insulinoma cells, dose response, cytotoxicity control, cell-based, mouse insulinoma (AID 2122); format: functional;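 further: confirmatory high-throughput counterscreen run to flag cytotoxic compounds; mouse MIN-6 beta cells carrying an insulin promoter eGFP reporter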
[16] = C. albicans growth with fluconazole, confirmation, fluorescence, retest (AID 2467); format: functional, cell-based
[17] = growth suppression of PTEN-null colon cells, dose response, cell-based, HCT116 PTEN knockout (AID 1047); format: functional;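 further: HCT116 colon tumor cells with PTEN knocked out; cells exposed to compound for 60 hours before readout; potency for loss of cell viability measured by luminescence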
[18] = growth suppression of beta-catenin-knockout colon cells, dose response, cell-based, HCT116, human colon tumor (AID 1045); format: functional;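 further: HCT116 colon tumor cells with beta catenin knocked out; cells exposed to compound for 60 hours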
[19] = molecular target: T5, Ubiquitin-conjugating enzyme E2 N (Homo sapiens, UniProt P61088); format: functional;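 further: Dose-response confirmation in a TR-FRET assay detecting UBC13-driven polyubiquitin chain formation, inhibition measured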
T5 sequence (P61088 whole entry): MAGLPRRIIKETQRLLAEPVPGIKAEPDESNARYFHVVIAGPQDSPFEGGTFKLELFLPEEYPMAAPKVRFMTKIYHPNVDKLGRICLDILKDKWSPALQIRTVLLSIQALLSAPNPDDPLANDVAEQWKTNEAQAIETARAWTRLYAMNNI

[20] = molecular target: T6, Cysteine protease ATG4B (Homo sapiens, UniProt Q9Y4P1); format: functional;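 further: Fluorescence-based dose-response confirmation assay measuring inhibition of ATG4B activity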
T6 sequence (Q9Y4P1 whole entry): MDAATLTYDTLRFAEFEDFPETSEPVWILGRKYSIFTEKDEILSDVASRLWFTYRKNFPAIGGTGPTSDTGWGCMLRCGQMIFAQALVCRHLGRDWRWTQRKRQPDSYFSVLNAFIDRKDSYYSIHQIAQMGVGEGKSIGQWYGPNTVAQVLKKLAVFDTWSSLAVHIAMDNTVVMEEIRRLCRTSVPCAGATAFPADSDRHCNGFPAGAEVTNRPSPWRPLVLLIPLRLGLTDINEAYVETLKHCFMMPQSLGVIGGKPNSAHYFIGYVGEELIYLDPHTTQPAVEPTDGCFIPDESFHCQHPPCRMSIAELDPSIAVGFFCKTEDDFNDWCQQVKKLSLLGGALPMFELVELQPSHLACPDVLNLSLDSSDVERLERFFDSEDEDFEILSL

[21] = molecular target: X-box-binding protein 1 (Homo sapiens, UniProt P17861); format: functional, Cricetulus griseus;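 further: confirmatory dose-response counter-screen serving a CHOP assay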
[22] = molecular target: Phospholipase A2 (Homo sapiens, UniProt P04054); format: functional;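 further: confirmatory dose-response counterscreen on phospholipase A2, testing hits that came from an ultra-high-throughput screen for ATG4B inhibitors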
[23] = inhibitors of HIV Env-driven cell fusion, dose response, cherry-pick (AID 652057); format: functional, cell-based
[24] = CEM21 lymphoblast cell cytotoxicity, dose response, cytotoxicity control for viral fusion inhibitor project, CellTiter-Glo luminescence, cherry-picked (AID 652042); format: functional, cell-based;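 further: potency for signal decrease meaning cytotoxicity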
[25] = ZM109 Env clade C HIV-1 fusion inhibitors, dose response, HeLa effector, CEM target cells, luciferase, cherry-pick (AID 652058); format: functional, cell-based
[26] = off-target signal loss in HeLa-CEM21 co-culture – HeLa F-luc CTL cells, cherry-picked, counter-screen for HIV-1 Env fusion inhibitor project, dose response (AID 652040); format: functional, cell-based;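 further: potency for signal decrease marking cytotoxic or nonspecific inhibition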
[27] = inhibitors of clade B AD8 Env fusion, dose response, cell-based, cherry-pick (AID 652062); format: functional;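 further: luciferase signal from cell-cell fusion driven by HIV-1 clade B AD8 Env; potency is for inhibitors of fusion seen as a drop in luminescence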

T1 sequence (Q9UBE0 whole entry): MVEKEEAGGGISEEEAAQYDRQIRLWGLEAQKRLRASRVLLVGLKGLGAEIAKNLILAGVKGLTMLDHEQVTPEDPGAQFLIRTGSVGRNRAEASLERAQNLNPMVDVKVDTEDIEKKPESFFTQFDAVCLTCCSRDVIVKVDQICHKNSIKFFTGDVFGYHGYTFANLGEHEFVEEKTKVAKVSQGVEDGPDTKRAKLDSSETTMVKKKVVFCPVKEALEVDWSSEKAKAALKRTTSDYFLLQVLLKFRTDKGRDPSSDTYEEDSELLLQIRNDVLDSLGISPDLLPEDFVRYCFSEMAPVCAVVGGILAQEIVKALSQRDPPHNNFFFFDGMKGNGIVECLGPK
T1 sequence (Q9UBT2 whole entry): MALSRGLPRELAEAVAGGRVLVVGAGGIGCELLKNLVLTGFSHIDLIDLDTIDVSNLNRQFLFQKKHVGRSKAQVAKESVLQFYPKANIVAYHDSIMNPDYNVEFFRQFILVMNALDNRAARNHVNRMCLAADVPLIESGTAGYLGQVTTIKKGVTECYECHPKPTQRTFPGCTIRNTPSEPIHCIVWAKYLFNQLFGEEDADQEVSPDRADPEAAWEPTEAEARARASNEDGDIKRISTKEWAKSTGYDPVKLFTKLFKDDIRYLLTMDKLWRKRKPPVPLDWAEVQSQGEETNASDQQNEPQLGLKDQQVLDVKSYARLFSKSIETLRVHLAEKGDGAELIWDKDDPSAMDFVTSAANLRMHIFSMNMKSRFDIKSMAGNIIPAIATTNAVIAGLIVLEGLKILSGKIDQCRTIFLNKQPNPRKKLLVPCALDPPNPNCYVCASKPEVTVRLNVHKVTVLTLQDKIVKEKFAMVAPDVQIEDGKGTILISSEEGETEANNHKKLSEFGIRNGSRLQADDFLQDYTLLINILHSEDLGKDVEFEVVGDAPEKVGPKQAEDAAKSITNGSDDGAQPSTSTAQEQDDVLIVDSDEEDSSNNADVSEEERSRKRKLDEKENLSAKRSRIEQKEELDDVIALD
Chain of X-box-binding protein 1 (P17861 whole entry): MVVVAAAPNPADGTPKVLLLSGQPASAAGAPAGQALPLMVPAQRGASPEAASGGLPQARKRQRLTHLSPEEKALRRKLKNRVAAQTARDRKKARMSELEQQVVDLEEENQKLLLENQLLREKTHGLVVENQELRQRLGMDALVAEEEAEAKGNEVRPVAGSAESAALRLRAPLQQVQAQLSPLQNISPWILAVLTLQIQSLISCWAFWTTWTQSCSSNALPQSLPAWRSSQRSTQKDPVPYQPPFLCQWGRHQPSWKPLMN
Chain of Serine/threonine-protein phosphatase PP1-alpha catalytic subunit (P62136 whole entry): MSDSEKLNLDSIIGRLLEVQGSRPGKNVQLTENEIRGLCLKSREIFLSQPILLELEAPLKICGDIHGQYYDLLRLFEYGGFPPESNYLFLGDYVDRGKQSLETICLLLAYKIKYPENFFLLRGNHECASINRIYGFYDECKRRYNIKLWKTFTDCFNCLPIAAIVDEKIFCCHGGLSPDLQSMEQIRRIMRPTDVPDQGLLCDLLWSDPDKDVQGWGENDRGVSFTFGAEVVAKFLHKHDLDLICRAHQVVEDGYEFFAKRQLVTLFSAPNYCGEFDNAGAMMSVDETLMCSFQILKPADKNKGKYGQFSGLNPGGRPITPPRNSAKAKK
Chain of Serine/threonine-protein phosphatase (Q9BPW0 whole entry): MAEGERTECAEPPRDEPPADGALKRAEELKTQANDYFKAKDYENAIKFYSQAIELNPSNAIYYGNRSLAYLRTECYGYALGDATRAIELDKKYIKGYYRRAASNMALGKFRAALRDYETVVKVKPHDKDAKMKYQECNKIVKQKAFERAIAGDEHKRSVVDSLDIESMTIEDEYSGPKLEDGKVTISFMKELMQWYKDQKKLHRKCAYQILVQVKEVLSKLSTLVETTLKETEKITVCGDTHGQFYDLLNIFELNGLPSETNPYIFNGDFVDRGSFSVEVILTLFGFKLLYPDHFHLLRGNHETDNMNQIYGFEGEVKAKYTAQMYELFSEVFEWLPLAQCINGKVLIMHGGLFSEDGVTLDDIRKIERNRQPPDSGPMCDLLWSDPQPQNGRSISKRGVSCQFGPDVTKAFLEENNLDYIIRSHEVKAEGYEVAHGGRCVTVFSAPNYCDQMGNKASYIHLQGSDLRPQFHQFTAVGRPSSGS
Chain of Phospholipase A2 (P04054 whole entry, the tested form may be a part): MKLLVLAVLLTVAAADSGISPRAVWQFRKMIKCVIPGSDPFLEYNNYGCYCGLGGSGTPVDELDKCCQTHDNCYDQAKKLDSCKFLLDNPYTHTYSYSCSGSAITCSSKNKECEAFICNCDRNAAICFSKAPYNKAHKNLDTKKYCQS
Chain of Metabotropic glutamate receptor 4 (P31423 whole entry): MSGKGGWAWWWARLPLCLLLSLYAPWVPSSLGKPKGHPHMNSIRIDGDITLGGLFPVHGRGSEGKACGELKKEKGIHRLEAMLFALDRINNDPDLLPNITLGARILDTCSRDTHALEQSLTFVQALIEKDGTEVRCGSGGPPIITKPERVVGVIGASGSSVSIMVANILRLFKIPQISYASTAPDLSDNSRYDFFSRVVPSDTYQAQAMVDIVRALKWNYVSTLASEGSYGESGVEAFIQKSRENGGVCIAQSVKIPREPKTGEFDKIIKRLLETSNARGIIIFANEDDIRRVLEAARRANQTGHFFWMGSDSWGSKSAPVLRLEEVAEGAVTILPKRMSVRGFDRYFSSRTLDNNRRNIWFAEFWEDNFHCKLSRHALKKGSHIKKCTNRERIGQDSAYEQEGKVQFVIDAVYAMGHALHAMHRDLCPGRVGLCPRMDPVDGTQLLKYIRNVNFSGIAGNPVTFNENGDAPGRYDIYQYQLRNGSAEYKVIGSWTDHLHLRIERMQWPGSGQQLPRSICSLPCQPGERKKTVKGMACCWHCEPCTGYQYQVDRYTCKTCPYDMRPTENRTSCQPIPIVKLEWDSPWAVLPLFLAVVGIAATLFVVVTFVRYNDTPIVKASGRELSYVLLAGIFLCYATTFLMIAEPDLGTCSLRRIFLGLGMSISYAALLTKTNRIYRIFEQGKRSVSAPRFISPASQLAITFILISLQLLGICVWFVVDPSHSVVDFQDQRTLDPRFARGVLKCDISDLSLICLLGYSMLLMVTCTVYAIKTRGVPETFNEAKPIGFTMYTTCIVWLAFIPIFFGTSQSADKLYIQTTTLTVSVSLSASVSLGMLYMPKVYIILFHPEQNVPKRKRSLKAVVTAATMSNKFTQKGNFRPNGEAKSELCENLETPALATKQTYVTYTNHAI

O=C(Nc1ccc(N2C(=O)c3ccccc3C2=O)c(Cl)c1)c1ccccn1
active: EC50 [1] 0.07 µM

CC(=O)Nc1ccc(NC2=C/C(=N/S(=O)(=O)c3cccs3)c3ccccc3C2=O)cc1
active: IC50 [3] 1.34 µM | EC50 [5] 3.44 µM | EC50 [7] 3.58 µM | IC50 [8] 1.61 µM | IC50 [9] 3.72 µM | IC50 [10] 1.48 µM | AC50 [11] 4.23 µM
inactive: IC50 [4] > 100 µM | IC50 [12] 14.3 µM
12.3 µM (not active): IC50 [6]
> 67 µM (not active): IC50 [2]

Cc1cc(Nc2ccc(Cl)cc2)nc(NCc2ccccc2)n1
active: IC50 [14] 1.51 µM | IC50 [15] 0.878 µM | EC50 [16] 2.45 µM | EC50 [17] 5.72 µM | EC50 [18] 6.7 µM | IC50 [20] 10.9 µM | IC50 [22] 15.4 µM | AC50 [23] 2.98 µM | AC50 [24] 15.3 µM | AC50 [25] 3.31 µM | AC50 [26] 4.05 µM | AC50 [27] 8.5 µM
inactive: EC50 [13] > 150 µM | IC50 [19] > 20 µM
< 10 µM: Absolute IC50 (XBP1) [21]
